According to PubChem BioAssay (NCI):
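Exposure lasted 48 hours, with cells grown in 96-well plates and compounds tested at five concentrations. At the GI50, growth is halved. TGI: concentration producing complete growth inhibition.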

What was measured:
Assay in all cases: inhibition of tumour cell growth, NCI panel, 48 h
OVCAR-4 ovarian = system: OVCAR-4 ovarian
DU-145 prostate = system: DU-145 prostate
IGROV1 ovarian = system: IGROV1 ovarian
SF-295 CNS = system: SF-295 CNS
MCF7 breast = system: MCF7 breast
CAKI-1 renal = system: CAKI-1 renal
HOP-62 NSCLC = system: HOP-62 NSCLC
NCI-H460 lung = system: NCI-H460 lung
PC-3 prostate = system: PC-3 prostate
MDA-MB-435 = system: MDA-MB-435
BT-549 breast = system: BT-549 breast
SR leukemia = system: SR leukemia
HS 578T breast = system: HS 578T breast
SNB-19 CNS = system: SNB-19 CNS
SW-620 colon = system: SW-620 colon
A498 renal = system: A498 renal
HCT-116 colon = system: HCT-116 colon
NCI-H23 lung = system: NCI-H23 lung
SF-539 CNS = system: SF-539 CNS
SK-MEL-5 melanoma = system: SK-MEL-5 melanoma
UACC-257 melanoma = system: UACC-257 melanoma
HCT-15 colon = system: HCT-15 colon
OVCAR-5 ovarian = system: OVCAR-5 ovarian
RPMI-8226 leukemia = system: RPMI-8226 leukemia
NCI-H522 lung = system: NCI-H522 lung
MDA-MB-468 breast = system: MDA-MB-468 breast
RXF 393 renal = system: RXF 393 renal
LOX IMVI melanoma = system: LOX IMVI melanoma
OVCAR-8 ovarian = system: OVCAR-8 ovarian
U251 CNS = system: U251 CNS
M14 melanoma = system: M14 melanoma
HCC-2998 colon = system: HCC-2998 colon
MALME-3M melanoma = system: MALME-3M melanoma
SK-OV-3 ovarian = system: SK-OV-3 ovarian
TK-10 renal = system: TK-10 renal
786-0 renal = system: 786-0 renal
SN12C renal = system: SN12C renal
NCI/ADR-RES ovarian = system: NCI/ADR-RES ovarian
K-562 leukemia = system: K-562 leukemia
CCRF-CEM leukemia = system: CCRF-CEM leukemia
T-47D breast = system: T-47D breast
SK-MEL-28 melanoma = system: SK-MEL-28 melanoma
HOP-92 NSCLC = system: HOP-92 NSCLC
MOLT-4 leukemia = system: MOLT-4 leukemia
COLO 205 colon = system: COLO 205 colon
ACHN renal = system: ACHN renal
HT29 colon = system: HT29 colon
EKVX NSCLC = system: EKVX NSCLC
OVCAR-3 ovarian = system: OVCAR-3 ovarian
A549 NSCLC = system: A549 NSCLC
UACC-62 melanoma = system: UACC-62 melanoma
NCI-H226 lung = system: NCI-H226 lung
SF-268 CNS = system: SF-268 CNS
KM12 colon = system: KM12 colon
HL-60(TB) leukemia = system: HL-60(TB) leukemia

## COc1ccc(C(=O)Nc2ccc(-c3ccc4c(c3)NC(=O)/C4=C\c3ccc[nH]3)cc2)cc1
OVCAR-4 ovarian
  GI50: 3.55 µM
  TGI: 23.2 µM
DU-145 prostate
  GI50: 8.3 µM
  TGI: > 100 µM
IGROV1 ovarian
  GI50: 37.6 µM
  TGI: > 100 µM
SF-295 CNS
  GI50: 13.9 µM
  TGI: 62.4 µM
MCF7 breast
  GI50: 0.372 µM
  TGI: > 100 µM
CAKI-1 renal
  GI50: > 100 µM
  TGI: > 100 µM
HOP-62 NSCLC
  GI50: 3.76 µM
  TGI: 13.5 µM
NCI-H460 lung
  GI50: 12.7 µM
  TGI: > 100 µM
PC-3 prostate
  GI50: 27.7 µM
  TGI: > 100 µM
MDA-MB-435
  GI50: > 100 µM
  TGI: > 100 µM
BT-549 breast
  GI50: 33.4 µM
  TGI: > 100 µM
SR leukemia
  GI50: 13.4 µM
  TGI: > 100 µM
HS 578T breast
  GI50: 5.82 µM
  TGI: 49.2 µM
SNB-19 CNS
  GI50: 30.9 µM
  TGI: > 100 µM
SW-620 colon
  GI50: 8.39 µM
  TGI: > 100 µM
A498 renal
  GI50: > 100 µM
  TGI: > 100 µM
HCT-116 colon
  GI50: 15.7 µM
  TGI: > 100 µM
NCI-H23 lung
  GI50: 12.4 µM
  TGI: > 100 µM
SF-539 CNS
  GI50: > 100 µM
  TGI: > 100 µM
SK-MEL-5 melanoma
  GI50: > 100 µM
  TGI: > 100 µM
UACC-257 melanoma
  GI50: 9.07 µM
  TGI: > 100 µM
HCT-15 colon
  GI50: 23 µM
  TGI: > 100 µM
OVCAR-5 ovarian
  GI50: 30.8 µM
  TGI: > 100 µM
RPMI-8226 leukemia
  GI50: 38.4 µM
  TGI: > 100 µM
NCI-H522 lung
  GI50: 17 µM
  TGI: 91.3 µM
MDA-MB-468 breast
  GI50: 0.243 µM
  TGI: 1.71 µM
RXF 393 renal
  GI50: 8.74 µM
  TGI: 50.8 µM
LOX IMVI melanoma
  GI50: 7.29 µM
  TGI: > 100 µM
OVCAR-8 ovarian
  GI50: 2.95 µM
  TGI: 10.3 µM
U251 CNS
  GI50: 5.29 µM
  TGI: 18.9 µM
M14 melanoma
  GI50: 7.15 µM
  TGI: > 100 µM
HCC-2998 colon
  GI50: 9.38 µM
  TGI: > 100 µM
MALME-3M melanoma
  GI50: 13.4 µM
  TGI: > 100 µM
SK-OV-3 ovarian
  GI50: > 100 µM
  TGI: > 100 µM
TK-10 renal
  GI50: 19 µM
  TGI: > 100 µM
786-0 renal
  GI50: 21.8 µM
  TGI: 71.9 µM
SN12C renal
  GI50: 68.9 µM
  TGI: > 100 µM
NCI/ADR-RES ovarian
  GI50: 3.84 µM
  TGI: 16.3 µM
K-562 leukemia
  GI50: 25.2 µM
  TGI: > 100 µM
CCRF-CEM leukemia
  GI50: > 100 µM
  TGI: > 100 µM
T-47D breast
  GI50: 3.17 µM
  TGI: 41.2 µM
SK-MEL-28 melanoma
  GI50: 79.6 µM
  TGI: > 100 µM
HOP-92 NSCLC
  GI50: 42.8 µM
  TGI: > 100 µM
MOLT-4 leukemia
  GI50: 19.4 µM
  TGI: > 100 µM
COLO 205 colon
  GI50: 3.36 µM
  TGI: 12.1 µM
ACHN renal
  GI50: 48.2 µM
  TGI: > 100 µM
HT29 colon
  GI50: 4.23 µM
  TGI: 19.8 µM
EKVX NSCLC
  GI50: 2.46 µM
  TGI: > 100 µM
OVCAR-3 ovarian
  GI50: 47.1 µM
  TGI: > 100 µM
A549 NSCLC
  GI50: 15.2 µM
  TGI: > 100 µM
UACC-62 melanoma
  GI50: 20.5 µM
  TGI: > 100 µM
NCI-H226 lung
  GI50: 4.08 µM
  TGI: > 100 µM
SF-268 CNS
  GI50: 28.7 µM
  TGI: > 100 µM
KM12 colon
  GI50: 53.7 µM
  TGI: > 100 µM
HL-60(TB) leukemia
  GI50: 32.4 µM
  TGI: > 100 µM
